{
  "source": "patent US11820804B2",
  "about": "“Peptide-based inhibitors of growth hormone action and methods of use thereof” (Ohio University, priority 2018, dated 2023)",
  "type_in_all_cases": "cell-based",
  "key": {"[1]": {"tested_on": "hGH mediated STAT5 phosphorylation in SK-MEL-28 human melanoma cells", "test": "Western blot of hGH mediated STAT5 phosphorylation in SK-MEL-28 cells", "details": "co-treated with 2.5 nM recombinant hGH, peptide at 25 and 250 nM, 20 minutes", "method": "(§1) Human malignant melanoma cell lines—SK-MEL-28, SK-MEL-30, human lymphoblast IM9 cells, mouse fibroblast L cells were obtained from American Type Culture Collection (ATCC; Manassas, Va.). SK-MEL-28 were grown and maintained in EMEM media (ATCC), while IM9 and L cells were grown in RPMI-1640 (ATCC) and DMEM (ATCC) respectively, as indicated by ATCC protocols. Complete growth media was supplemented with 10% fetal bovine serum (FBS; ATCC) and 1×antibiotic-antimycotic (Thermo Fisher Scientific, Waltham, Mass.). Cells were grown at 37° C./5% CO2 in a humidified incubator. Media was replaced every 48 hours. No hGH was present in the media or added externally unless specifically mentioned. For hGH treatment of adherent cells, 12-16 hours after seeding the cells were serum-starved for 4 hours in serum free growth media and hGH (or PBS as control) was added at the mentioned concentrations (50 ng/mL=2.5 nM or other concentrations). […]\n(§2) Western blotting was performed following established lab procedures. […] Membranes were then washed and treated with West Femto Chemiluminiscence® detection reagents (Thermo Fisher Scientific) and the chemiluminiscence signal was captured using a GelDoc® (Biorad) fluorescence reader. Densitometry analysis of the blots was done by measured band-intensity from the area-under-curve using ImageJ® software. […]"}, "[2]": {"tested_on": "hGH mediated STAT5 phosphorylation in IM9 human lymphoblast cells", "test": "Western blot of hGH mediated STAT5 phosphorylation in IM9 cells", "details": "co-treated with 2.5 nM recombinant hGH, peptide at 25 and 250 nM, 20 minutes", "method": "as §1, §2"}, "[3]": {"tested_on": "hGH mediated STAT5 phosphorylation in L mouse fibroblasts cells", "test": "Western blot of hGH mediated STAT5 phosphorylation in L cells", "details": "L mouse fibroblast cells, co-treated with 2.5 nM recombinant hGH, peptide at 25 and 250 nM, 20 minutes", "method": "as §1, §2"}, "[4]": {"tested_on": "tyrosine pSTAT5 levels following hGH stimulation", "test": "tyrosine pSTAT5 levels following hGH stimulation (cells not named at the place)", "details": "general statement, cell line not named", "description": "A hallmark of hGH action is rapid tyrosine phosphorylation of the STAT5(A and B) transcription factor protein following binding of hGH to hGHR and transactivation of hGHR associated JAK2. The phosphorylation event is rapid (minutes following hGH addition) and has been used as a readout of hGHR activation. Inhibitors of hGH action blocks hGH-hGHR mediated STAT5 tyrosine phosphorylation in many cells, including IM9, SK-MEL-28, mouse fibroblasts, and other cells which express hGHR.\nas §1, with “mentioned.” for “mentioned. For hGH treatment of adherent cells, 12-16 hours after seeding the cells were serum-starved for 4 hours in serum free growth media and hGH (or PBS as control) was added at the mentioned concentrations (50 ng/mL=2.5 nM or other concentrations).”"}},
  "data": [
    {"substance": "Tyr Ile Pro Lys Glu Gln Lys Tyr Ser Phe Leu Gln Asn Pro Gln Thr (YIPKEQKYSFLQNPQT; listed as Homo sapiens) [S1H, 16-amino acid peptide mimicking hGH site 1 helix, residues 36-51]", "values": [
      {"measurement": "hGH mediated STAT5 phosphorylation (pSTAT5 levels)", "setting": "[1]", "value": "downregulates hGH mediated STAT5 phosphorylation"},
      {"measurement": "hGH mediated STAT5 phosphorylation (phospho-STAT5 levels)", "setting": "[2]", "value": "downregulates hGH mediated STAT5 phosphorylation"},
      {"measurement": "hGH mediated STAT5 phosphorylation (phospho-STAT5 levels)", "setting": "[3]", "value": "downregulates hGH mediated STAT5 phosphorylation"},
      {"measurement": "tyrosine pSTAT5 levels following hGH stimulation", "setting": "[4]", "value": "robustly blocks tyrosine pSTAT5 levels following hGH stimulation, in a dose-dependent manner"}
    ]}
  ]
}
